Reference: patent publication US20240117269A1, “NOVEL AROMATIC MONOTHIOKETALS AS FRAGRANCE COMPOUNDS” (SYMRISE AG, priority 2019, published 2024)

Experiment: Odor detection threshold (ODT), dynamic olfactometer TO8, expert group, EN 13725
Conditions: in air
Description: The odor perception threshold, i.e. the ODT value (“odor detection threshold”), was determined using a dynamic olfactometer designated TO8 and a group of experts in accordance with the EN 13725 standard, in which an odorous air sample is diluted with clean air. The dilution is presented to the test persons (testers) for evaluation. The odor description was carried out by a group of experts comprising 10 members.

SMILES | ODT value [ng/L]
CC1OCc2ccccc2S1 (centres unmarked) [2-methyl-4H-3,1-benzoxathiin] | 3.6
c1ccc2c(c1)COCS2 [4H-3,1-benzoxathiin] | 43.6
